Data reported in the supplement of paper PMC10307832.

Experiments:
Test in all cases: relative viability (nuclei count vs DMSO), 5 days (fraction); higher = more cells survive
Gemcitabine + Vorinostat = compound: Nc1ccn([C@@H]2O[C@H](CO)[C@@H](O)C2(F)F)c(=O)n1 [Gemcitabine] + O=C(CCCCCCC(=O)Nc1ccccc1)NO [Vorinostat] (partner 1 µM)
Method in brief: (§1)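 A single step with final 0.05% Triton X-100, 1% formaldehyde and 1 ug/ml Hoechst fixed the cells and stained nuclei 5 days after treatment. Lung cancer cell lines in 1536-well plates had been treated by pin tool the day after seeding with one drug alone or a fixed anchor-drug dose plus five library-drug doses (not always all listed) in √10 steps, and nuclei were counted on 4× images. Relative viability is the ratio of nuclei in treated wells to nuclei in vehicle wells, taken as the median of duplicate plates.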

Gemcitabine + Dasatinib = compound: Nc1ccn([C@@H]2O[C@H](CO)[C@@H](O)C2(F)F)c(=O)n1 [Gemcitabine] + Cc1nc(Nc2ncc(C(=O)Nc3c(C)cccc3Cl)s2)cc(N2CCN(CCO)CC2)n1 [Dasatinib] (partner 0.075 µM)
Method in brief: as §1

Gemcitabine + Pictilisib = compound: Nc1ccn([C@@H]2O[C@H](CO)[C@@H](O)C2(F)F)c(=O)n1 [Gemcitabine] + CS(=O)(=O)N1CCN(Cc2cc3nc(-c4cccc5[nH]ncc45)nc(N4CCOCC4)c3s2)CC1 [Pictilisib] (partner 1 µM)
Method in brief: as §1

Gemcitabine + Crizotinib = compound: Nc1ccn([C@@H]2O[C@H](CO)[C@@H](O)C2(F)F)c(=O)n1 [Gemcitabine] + C[C@@H](Oc1cc(-c2cnn(C3CCNCC3)c2)cnc1N)c1c(Cl)ccc(F)c1Cl [Crizotinib] (partner 1 µM)
Method in brief: as §1

Cell Line	relative viability (Gemcitabine + Vorinostat; first compound 0.001 µM)	relative viability (Gemcitabine + Vorinostat; first compound 0.003162 µM)	relative viability (Gemcitabine + Vorinostat; first compound 0.01 µM)	relative viability (Gemcitabine + Vorinostat; first compound 0.03162 µM)	relative viability (Gemcitabine + Vorinostat; first compound 0.1 µM)	relative viability (Gemcitabine + Dasatinib; first compound 0.001 µM)	relative viability (Gemcitabine + Dasatinib; first compound 0.003162 µM)	relative viability (Gemcitabine + Dasatinib; first compound 0.01 µM)	relative viability (Gemcitabine + Dasatinib; first compound 0.03162 µM)	relative viability (Gemcitabine + Dasatinib; first compound 0.1 µM)	relative viability (Gemcitabine + Pictilisib; first compound 0.001 µM)	relative viability (Gemcitabine + Pictilisib; first compound 0.003162 µM)	relative viability (Gemcitabine + Pictilisib; first compound 0.01 µM)	relative viability (Gemcitabine + Pictilisib; first compound 0.03162 µM)	relative viability (Gemcitabine + Pictilisib; first compound 0.1 µM)	relative viability (Gemcitabine + Crizotinib; first compound 0.001 µM)	relative viability (Gemcitabine + Crizotinib; first compound 0.003162 µM)	relative viability (Gemcitabine + Crizotinib; first compound 0.01 µM)	relative viability (Gemcitabine + Crizotinib; first compound 0.03162 µM)	relative viability (Gemcitabine + Crizotinib; first compound 0.1 µM)
NCI-H1666	1.02	0.955	0.963	0.927	0.576	0.797	0.796	0.715	0.52	0.375	0.326	0.471	0.306	0.284	0.274	0.959	1.16	0.596	0.321	0.268
NCI-H1734	0.746	0.626	0.119	0.114	0.0915	0.385	0.354	0.111	0.0942	0.091	0.455	0.387	0.233	0.151	0.113	0.8	0.48	0.246	0.106	0.104
NCI-H1755	0.804	0.751	0.599	0.469	0.313	0.454	0.457	0.392	0.243	0.207	0.417	0.45	0.355	0.249	0.188	0.92	0.845	0.681	0.268	0.218
NCI-H1915	0.49	0.5	0.45	0.391	0.258	0.357	0.344	0.295	0.255	0.181	1.02	0.949	0.909	0.857	0.229	0.967	0.87	0.881	0.426	0.247
NCI-H1944	0.59	0.572	0.321	0.192	0.131	0.208	0.209	0.182	0.153	0.123	0.352	0.373	0.355	0.241	0.22	1.28	1.02	0.953	0.304	0.141
NCI-H1975	0.741	0.714	0.372	0.18	0.186	0.419	0.574	0.241	0.0982	0.103	0.315	0.282	0.229	0.168	0.136	0.996	1.01	0.48	0.201	0.16
NCI-H1993	0.723	0.904	0.547	0.471	0.317	0.617	0.529	0.446	0.509	0.42	0.855	0.804	0.651	0.695	0.647	0.89	0.891	0.668	0.549	0.461
NCI-H2009	0.604	0.552	0.289	0.115	0.0881	0.297	0.219	0.101	0.101	0.0766	0.872	0.419	0.157	0.128	0.101	1.18	0.841	0.227	0.102	0.0943
NCI-H2023	0.773	0.388	0.259	0.0711	0.061	0.529	0.533	0.207	0.0853	0.0604	0.248	0.266	0.143	0.106	0.0734	0.702	0.633	0.504	0.095	0.0687
NCI-H2085	0.857	0.739	0.652	0.621	0.368	0.221	0.232	0.287	0.206	0.158	0.45	0.448	0.461	0.344	0.347	0.74	0.828	0.699	0.585	0.4
NCI-H2087	0.862	0.174	0.304	0.0713	0.109	0.746	0.499	0.169	0.0893	0.0871	0.73	0.662	0.386	0.193	0.199	0.963	0.8	0.405	0.133	0.161
NCI-H2126	0.841	0.837	0.707	0.515	0.275	0.647	0.6	0.548	0.389	0.19	0.474	0.485	0.479	0.349	0.278	1.04	0.999	0.968	0.644	0.41
NCI-H2170	0.829	0.843	0.538	0.113	0.105	0.609	0.673	0.415	0.114	0.104	0.318	0.359	0.215	0.157	0.156	1.39	1.23	0.615	0.161	0.155
NCI-H2228	0.429	0.374	0.226	0.0768	0.217	0.529	0.3	0.118	0.111	0.087	0.375	0.417	0.294	0.236	0.123	0.615	0.326	0.233	0.141	0.166
NCI-H2347	0.584	0.453	0.507	0.327	0.281	0.291	0.304	0.257	0.22	0.195	0.554	0.655	0.648	0.385	0.348	0.756	0.704	0.623	0.452	0.477
NCI-H2405	1.03	0.784	0.543	0.243	0.197	0.2	0.196	0.199	0.151	0.159	0.432	0.255	0.272	0.2	0.122	0.846	0.775	0.564	0.245	0.22
